Reference: patent publication US20220144881A1, “COMPOUNDS AND METHODS FOR MANUFACTURE OF HYPOMETHYLATING AGENTS” (priority 2020, published 2022)

Assay: Effect of relative humidity on polymorphic forms of Compound 10 (monitored by XRPD)
Format: physicochemical
Settings: for Stability at 0% RH: relevant condition for storage and further processing; for Form conversion at 33% RH: Form A only after at least 2 weeks; for Description of polymorph (stability / conditions of formation): RH = relative humidity; for Form conversion at 97% RH and above: RH of 97% and above
Description: Studies were performed to identify the different polymorphic forms of Compound 10 drug substance. Seven polymorphs of Compound 10 in total have been identified (TABLE 1).
Compound 10 is hygroscopic and is therefore packaged and stored at conditions that inhibit moisture uptake. Experiments were performed to understand the effect of relative humidity on various polymorphic forms of Compound 10. Form A and Form B were subjected to increasing relative humidity (TABLE 2) and monitored using XRPD to evaluate polymorphism.
Forms A, B, C, and D were characterized by X-ray powder diffraction (XRPD). XRPD diffractograms were collected with a PANalytical X'Pert PRO MPD® diffractometer using an incident beam of Cu radiation produced using an Optix long, fine-focus source. An elliptically graded multilayer mirror was used to focus Cu Kα X-rays through the specimen and onto the detector. Prior to the analysis, a silicon specimen (NIST SRM 640e) was analyzed to verify the observed position of the Si 111 peak is consistent with the NIST-certified position. For the determination of solid forms under the environmental conditions surveyed in EXAMPLE 6, samples of Compound 10 were stored within environmental chambers maintained at specific relative humidity conditions. A specimen of the sample was sandwiched between 3-μm-thick Etnom® films within these environmental chambers. Once prepared, the test article was removed from the environmental chamber and analyzed in transmission geometry without undue delay. A beam-stop, short antiscatter extension, and antiscatter knife edge were used to minimize the background generated by air. Soller slits for the incident and diffracted beams were used to minimize broadening from axial divergence. Diffraction patterns were collected using a scanning position-sensitive detector (X'Celerator) located 240 mm from the specimen and Data Collector software v. 2.2b.

Q: With `Nc1ncn([C@H]2C[C@H](OP(=O)([O-])OC[C@H]3O[C@@H](n4cnc5c(=O)[nH]c(N)nc54)C[C@@H]3O)[C@@H](CO)O2)c(=O)n1.[Na+]` [Compound 10, guadecitabine sodium] as the compound, how does the Hygroscopicity read?
A: Its Hygroscopicity is “hygroscopic”.

Q: Which “Stability at 0% RH” value does the source give for `Nc1ncn([C@H]2C[C@H](OP(=O)([O-])OC[C@H]3O[C@@H](n4cnc5c(=O)[nH]c(N)nc54)C[C@@H]3O)[C@@H](CO)O2)c(=O)n1.[Na+]` [Form A, guadecitabine sodium] here?
A: The value was “stable”.

Q: What about the “Duration of stability at 33% RH” value (33% RH) of the same compound?
A: The value was “at least 2 weeks”.

Q: What about the “Form conversion at 33% RH” value (33% RH) of the same compound?
A: Its value is “converted to Form K”.

Q: What about the “Description of polymorph (stability / conditions of formation)” value of the same compound?
A: The value was “Stable form at 0% RH”.

Q: What does the source list for `Nc1ncn([C@H]2C[C@H](OP(=O)([O-])OC[C@H]3O[C@@H](n4cnc5c(=O)[nH]c(N)nc54)C[C@@H]3O)[C@@H](CO)O2)c(=O)n1.[Na+]` [Form B, guadecitabine sodium]?
A: Stability at 0% RH: stable; Form conversion at 33% RH (33% RH): converted to Form H; Polymorph observed at 97% RH (97% relative humidity, XRPD): Mesophase; Description of polymorph (stability / conditions of formation): Stable form at 0% RH; Form obtained on increasing RH (RH increased beyond 33%): formation of Form D; Form conversion at 97% RH and above: deliquescence to afford a mesophase

Q: Which “Description of polymorph (stability / conditions of formation)” value does the source give for `Nc1ncn([C@H]2C[C@H](OP(=O)([O-])OC[C@H]3O[C@@H](n4cnc5c(=O)[nH]c(N)nc54)C[C@@H]3O)[C@@H](CO)O2)c(=O)n1.[Na+]` [Form C, guadecitabine sodium] here?
A: Its value is “Formed from ethanolic slurry of Form A”.

Q: For `Nc1ncn([C@H]2CC(OP(=O)([O-])OC[C@H]3O[C@@H](n4cnc5c(=O)[nH]c(N)nc54)CC3O)[C@@H](CO)O2)c(=O)n1.[Na+]` (some centres unmarked) [Form D, guadecitabine sodium], which “Description of polymorph (stability / conditions of formation)” value is on record?
A: Its value is “Formed from Form B at 58% RH”.

Q: With `Nc1ncn([C@H]2C[C@H](OP(=O)([O-])OC[C@H]3O[C@@H](n4cnc5c(=O)[nH]c(N)nc54)C[C@@H]3O)[C@@H](CO)O2)c(=O)n1.[Na+]` [Form H, guadecitabine sodium] as the compound, how does the “Description of polymorph (stability / conditions of formation)” value read?
A: Its value is “Formed from Form B at 33% RH”.

Q: For `Nc1ncn([C@H]2C[C@H](OP(=O)([O-])OC[C@H]3O[C@@H](n4cnc5c(=O)[nH]c(N)nc54)C[C@@H]3O)[C@@H](CO)O2)c(=O)n1.[Na+]` [Form K, guadecitabine sodium], which “Description of polymorph (stability / conditions of formation)” value is on record?
A: Its value is “Formed from Form A at 58% RH”.

Q: And the “Form conversion at 97% RH and above” value?
A: The value was “converted to Form L”.

Q: Which “Description of polymorph (stability / conditions of formation)” value does the source give for `Nc1ncn([C@H]2CC(OP(=O)([O-])OC[C@H]3O[C@@H](n4cnc5c(=O)[nH]c(N)nc54)CC3O)[C@@H](CO)O2)c(=O)n1.[Na+]` (some centres unmarked) [Form L, guadecitabine sodium] here?
A: The value was “Formed from Form A at 97% RH”.
